This is an account of results in patent publication US11820776B2, “Process for the preparation of Remimazolam and solid state forms of Remimazolam salts” (WATSON LABORATORIES INC., priority 2017, dated 2023).

Common to all, as to format: physicochemical
One series can be described thus: Kinetic water solubility. The settings on record: comparator not stated.
A short description of series [1]: Solubility in various pH ranges. The settings on record: comparator not stated.
Series [2] can be described thus: Solid state stability at 80% relative humidity in open Petri dish. To be noted: 80% relative humidity (RH), room temperature (RT).
The nature of the next series: Bulk density. To be noted: compared to Remimazolam besylate.
Series [3] in a line: Compressibility properties. The settings on record: compared to Remimazolam besylate; may indicate better flow properties.

For `Br.COC(=O)CC[C@@H]1N=C(c2ccccn2)c2cc(Br)ccc2-n2c(C)cnc21` [Form 1 of Remimazolam Mono hydrobromide], the kinetic water solubility entry in the series “Kinetic water solubility” was “improved”. The “solubility in various pH ranges” value in series [1] is “improved”. The “period for which the crystalline form is stable” value (“period” for short) in series [2] is listed as “at least 24 hours”.
As to `CC1(C)C2CCC1(CS(=O)(=O)O)C(=O)C2.COC(=O)CC[C@@H]1N=C(c2ccccn2)c2cc(Br)ccc2-n2c(C)cnc21` [Form 2 of Remimazolam Camphor Sulfonate], the bulk density result in “Bulk density” was “higher”. Besides, in series [3], the compressibility properties entry is on record as “improved”. Also, the “period” value in series [2] is “at least 24 hours”.
Turning to `COC(=O)CC[C@@H]1N=C(c2ccccn2)c2cc(Br)ccc2-n2c(C)cnc21.CS(=O)(=O)O` [Form 2 of Remimazolam Methane Sulfonate], the kinetic water solubility result in “Kinetic water solubility” was “improved”. In addition, in series [1], the “solubility in various pH ranges” value is reported as “improved”. For the same compound, the “period” value in series [2] is listed as “at least 24 hours”.
